# Experimental data published in patent US20230077362A1 (CORTEVA AGRISCIENCE LLC, priority 2019, published 2023).
# Read-outs that look alike come from different tables or passages of the source.
# Key:
# [1] = test system: Beet Armyworm (Spodoptera exigua) ("BAW"), second instar larvae; assay: Bioassay on beet armyworm (BAW), 128-well diet tray assay; format: in vivo; conditions: for BAW rating (% control or mortality class) / BAW rating: Table ABC, species BAW; for BAW rating (% control or mortality class): 128-well diet tray assay, second instar larvae; for BAW rating: C = not tested, D = no activity noticed; for pest or weed control at 50 µg/cm2: Spodoptera exigua
# Procedure, shortened: (§1)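 Read-out: percent larval mortality per well, averaged over 8 wells. Incubation 25° C., 14:10 L:D photoperiod, 5–7 days, trays sealed with clear adhesive cover.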
# [2] = test system: Cabbage Looper (Trichoplusia ni) ("CL"), second instar larvae; assay: Bioassay on cabbage looper (CL), 128-well diet tray assay; format: in vivo; conditions: for mortality at 50 µg/cm2 / pest or weed control at 50 µg/cm2: Trichoplusia ni; for mortality at 50 µg/cm2 / CL rating: Table ABC, species CL; for mortality at 50 µg/cm2: 128-well diet tray assay, second instar larvae, read-out: CL rating (% control or mortality class); for CL rating: C = not tested, D = no activity noticed
# Procedure, shortened: as §1
# [3] = read-out: BAW (Biological Results, rating)
# [4] = read-out: CL (Biological Results, rating)
structure (smiles),measurement,setting,value
"Cc1ccc(OCCC(F)(F)F)c(N2C(=O)CS/C2=N\C(=O)Nc2ccc(-n3cnc(-c4ccc(OC(F)(F)F)cc4)c3)cc2Cl)c1 [Compound J790, (Z)-1-(2-Chloro-4-(4-(4-(trifluoromethoxy)phenyl)-1H-imidazol-1-yl)phenyl)-3-(3-(5-methyl-2-(3,3,3-trifluoropropoxy)phenyl)-4-oxothiazolidin-2-ylidene)urea]",BAW rating (% control or mortality class),[1],A (50-100)
same,mortality at 50 µg/cm2,[2],50 to 100%
CCOCc1ccc(C)cc1N1C(=O)CS/C1=N\C(=O)Nc1ccc(-c2ncn(-c3cccc(OC(F)(F)F)c3)n2)cc1C [Compound J726],BAW rating,[1],A (50-100)
same,CL rating,[2],A (50-100)
Cc1ccc(COCC(F)F)c(N2C(=O)CS/C2=N\C(=O)Nc2ccc(-c3ncn(-c4ccc(S(F)(F)(F)(F)F)cc4)n3)cc2F)c1 [Compound J446],pest or weed control at 50 µg/cm2,[1]; read-out: BAW rating,50 to 100%
same,pest or weed control at 50 µg/cm2,[2]; read-out: CL rating,50 to 100%
"Cc1ccc(COCC(F)(F)F)c(N2C(=O)CS/C2=N\C(=O)Nc2ccc(-c3cn(-c4ccc(C(F)(F)F)cc4)cn3)cc2C)c1 [Compound J526, (Z)-1-(3-(5-Methyl-2-((2,2,2-trifluoroethoxy)methyl)phenyl)-4-oxothiazolidin-2-ylidene)-3-(2-methyl-4-(1-(4-(trifluoromethyl)phenyl)-1H-imidazol-4-yl)phenyl)urea]",pest or weed control at 50 µg/cm2,[1]; read-out: BAW rating,50 to 100%
same,pest or weed control at 50 µg/cm2,[2]; read-out: CL rating,50 to 100%
"Cc1ccc(COCC(F)F)c(N2C(=O)CS/C2=N\C(=O)Nc2ccc(-c3noc(-c4ccc(OC(F)(F)F)cc4)n3)cc2F)c1 [Compound J771, (Z)-1-(3-(2-((2,2-Difluoroethoxy)methyl)-5-methylphenyl)-4-oxothiazolidin-2-ylidene)-3-(2-fluoro-4-(5-(4-(trifluoromethoxy)phenyl)-1,2,4-oxadiazol-3-yl)phenyl)urea]",pest or weed control at 50 µg/cm2,[1]; read-out: BAW rating,50 to 100%
same,pest or weed control at 50 µg/cm2,[2]; read-out: CL rating,50 to 100%
"COc1cc(COCC(F)(F)F)c(N2C(=O)CS/C2=N\C(=O)Nc2ccc(-c3ncn(-c4ccc(S(F)(F)(F)(F)F)cc4)n3)cc2C(F)(F)F)cc1OC [Compound J633, (Z)-1-(3-(4,5-Dimethoxy-2-((2,2,2-trifluoroethoxy)methyl)phenyl)-4-oxothiazolidin-2-ylidene)-3-(4-(1-(4-(pentafluoro-λ^6-sulfaneyl)phenyl)-1H-1,2,4-triazol-3-yl)-2-(trifluoromethyl)phenyl)urea]",pest or weed control at 50 µg/cm2,[1]; read-out: BAW rating,50 to 100%
same,pest or weed control at 50 µg/cm2,[2]; read-out: CL rating,50 to 100%
"Cc1ccc(COCC(F)(F)F)c(N2C(=O)CS/C2=N\C(=O)Nc2ccc(-c3ncn(-c4ccc(OC(F)(F)F)cc4)n3)cc2Br)c1 [Compound J222, (Z)-1-(2-Bromo-4-(1-(4-(trifluoromethoxy)phenyl)-1H-1,2,4-triazol-3-yl)phenyl)-3-(3-(5-methyl-2-((2,2,2-trifluoroethoxy)methyl)phenyl)-4-oxothiazolidin-2-ylidene)urea]",pest or weed control at 50 µg/cm2,[1]; [3],50 to 100%
same,pest or weed control at 50 µg/cm2,[2]; [4],50 to 100%
"COc1ccc(C(C)C)c(N2C(=O)CS/C2=N\C(=O)Nc2ccc(-c3ncn(-c4ccc(OC(F)(F)F)cn4)n3)cc2C)c1 [Compound J252, (Z)-1-(3-(2-Isopropyl-5-methoxyphenyl)-4-oxothiazolidin-2-ylidene)-3-(2-methyl-4-(1-(5-(trifluoromethoxy)pyridin-2-yl)-1H-1,2,4-triazol-3-yl)phenyl)urea]",pest or weed control at 50 µg/cm2,[1]; [3],50 to 100%
same,pest or weed control at 50 µg/cm2,[2]; [4],50 to 100%
"Cc1ccc(COCC(F)(F)F)c(N2C(=O)CS/C2=N\C(=O)Nc2ccc(-c3ncn(-c4ccc(C(F)(F)C(F)(F)F)cc4)n3)cc2C)c1 [Compound J794, (Z)-1-(3-(5-Methyl-2-((2,2,2-trifluoroethoxy)methyl)phenyl)-4-oxothiazolidin-2-ylidene)-3-(2-methyl-4-(1-(4-(perfluoroethyl)phenyl)-1H-1,2,4-triazol-3-yl)phenyl)urea]",BAW rating (% control or mortality class),[1],A (50-100)
same,mortality at 50 µg/cm2,[2],50 to 100%
Cc1cccc(N2C(=O)CS/C2=N\C(=O)Nc2ccc(-c3ncn(-c4ccc(C(F)(F)F)cc4)n3)cc2F)c1COCC(F)(F)F [Compound J677],BAW rating,[1],A (50-100)
same,CL rating,[2],A (50-100)
CCOCc1ccc(C)cc1N1C(=O)CS/C1=N\C(=O)Nc1ccc(-c2ncn(-c3cccc(C(F)(F)F)c3)n2)cc1F [Compound J723],BAW rating,[1],A (50-100)
same,CL rating,[2],A (50-100)
Cc1ccc(COCC(Cl)Cl)c(N2C(=O)CS/C2=N\C(=O)Nc2ccc(-c3ncn(-c4ccc(C(F)(F)F)cc4)n3)cc2F)c1 [Compound J559],BAW rating,[1],A (50-100)
same,CL rating,[2],A (50-100)
"Cc1ccc(COCC(F)(F)F)c(N2C(=O)CS/C2=N\C(=O)Nc2ccc(-c3ncn(-c4ccc(C(F)(F)F)cn4)n3)cc2C)c1 [Compound J297, (Z)-1-(3-(5-Methyl-2-((2,2,2-trifluoroethoxy)methyl)phenyl)-4-oxothiazolidin-2-ylidene)-3-(2-methyl-4-(1-(5-(trifluoromethyl)pyridin-2-yl)-1H-1,2,4-triazol-3-yl)phenyl)urea]",pest or weed control at 50 µg/cm2,[1]; [3],50 to 100%
same,pest or weed control at 50 µg/cm2,[2]; [4],50 to 100%
Cc1cc(COCC(F)(F)F)c(N2C(=O)CS/C2=N\C(=O)Nc2ccc(-c3ncn(-c4ccc(S(F)(F)(F)(F)F)cc4)n3)cc2F)cc1C [Compound J497],BAW rating,[1],A (50-100)
same,CL rating,[2],A (50-100)
"COc1c(C)cccc1N1C(=O)CS/C1=N\C(=O)Nc1ccc(-c2ncn(-c3ccc(OC(F)(F)F)cc3)n2)cc1F [Compound J798, (Z)-1-(2-Fluoro-4-(1-(4-(trifluoromethoxy)phenyl)-1H-1,2,4-triazol-3-yl)phenyl)-3-(3-(2-methoxy-3-methylphenyl)-4-oxothiazolidin-2-ylidene)urea]",BAW rating (% control or mortality class),[1],A (50-100)
same,mortality at 50 µg/cm2,[2],50 to 100%
"COc1ccc(-n2cnc(-c3ccc(NC(=O)/N=C4\SCC(=O)N4c4cc(C)ccc4C(C)C)c(F)c3)n2)cc1 [Compound J144, (Z)-1-(2-Fluoro-4-(1-(4-methoxyphenyl)-1H-1,2,4-triazol-3-yl)phenyl)-3-(3-(2-isopropyl-5-methylphenyl)-4-oxothiazolidin-2-ylidene)urea]",pest or weed control at 50 µg/cm2,[1]; [3],50 to 100%
same,pest or weed control at 50 µg/cm2,[2]; [4],50 to 100%
"COC(c1ccc(C)cc1N1C(=O)CS/C1=N\C(=O)Nc1ccc(-c2cn(-c3ccc(S(F)(F)(F)(F)F)cc3)cn2)cc1F)C(F)(F)F (centres unmarked) [Compound J599, (Z)-1-(2-Fluoro-4-(1-(4-(pentafluoro-λ^6-sulfaneyl)phenyl)-1H-imidazol-4-yl)phenyl)-3-(3-(5-methyl-2-(2,2,2-trifluoro-1-methoxyethyl)phenyl)-4-oxothiazolidin-2-ylidene)urea]",pest or weed control at 50 µg/cm2,[1]; read-out: BAW rating,50 to 100%
same,pest or weed control at 50 µg/cm2,[2]; read-out: CL rating,50 to 100%
Cc1ccc(COCCF)c(N2C(=O)CS/C2=N\C(=O)Nc2ccc(-c3ncn(-c4ccc(OC(F)(F)F)cc4)n3)cc2F)c1 [Compound J551],BAW rating,[1],A (50-100)
same,CL rating,[2],A (50-100)
CC(C)c1ccc(N(C)C)cc1N1C(=O)CS/C1=N\C(=O)Nc1ccc(-c2ccn(-c3ccc(C(F)(F)F)cn3)n2)cc1F [Compound J349],"BAW (Biological Results, rating)","[1]; Beet Armyworm (Spodoptera exigua), C = Not Tested",A (50-100)
same,"CL (Biological Results, rating)","[2]; Cabbage Looper (Trichoplusia ni), C = Not Tested",A (50-100)
Cc1ccc(N2C(=O)CS/C2=N\C(=O)Nc2ccc(-c3ncn(-c4ccc(OC(F)(F)F)cc4)n3)cc2F)c(COCC(F)(F)F)c1 [Compound J438],BAW rating,[1],A (50-100)
same,CL rating,[2],A (50-100)
"CCN(CC)c1ccc(C(C)C)c(N2C(=O)CS/C2=N\C(=O)Nc2ccc(-c3ncn(-c4ccc(OC(F)(F)F)cc4)n3)cc2C)c1 [Compound J129, (Z)-1-(3-(5-(Diethylamino)-2-isopropylphenyl)-4-oxothiazolidin-2-ylidene)-3-(2-methyl-4-(1-(4-(trifluoromethoxy)phenyl)-1H-1,2,4-triazol-3-yl)phenyl)urea]",pest or weed control at 50 µg/cm2,[1]; [3],50 to 100%
same,pest or weed control at 50 µg/cm2,[2]; [4],50 to 100%
"Cc1ccc(C(C)C)c(N2C(=O)CS/C2=N\C(=O)Nc2ccc(-c3cn(-c4ccc(OC(F)(F)F)cc4)cn3)cc2C)c1 [Compound J477, (Z)-1-(3-(2-Isopropyl-5-methylphenyl)-4-oxothiazolidin-2-ylidene)-3-(2-methyl-4-(1-(4-(trifluoromethoxy)phenyl)-1H-imidazol-4-yl)phenyl)urea]",pest or weed control at 50 µg/cm2,[1]; read-out: BAW rating,50 to 100%
same,pest or weed control at 50 µg/cm2,[2]; read-out: CL rating,50 to 100%
CCCc1ccc(C)cc1N1C(=O)CS/C1=N\C(=O)Nc1ccc(-c2ncn(-c3ccc(C(F)(F)F)cn3)n2)cc1F [Compound J454],BAW rating,[1],A (50-100)
same,CL rating,[2],A (50-100)
"COC(C)c1ccc(C)cc1N1C(=O)CS/C1=N\C(=O)Nc1ccc(-c2ncn(-c3ccc(OC(F)(F)F)cn3)n2)cc1C#N (centres unmarked) [Compound J267, (Z)-1-(2-Cyano-4-(1-(5-(trifluoromethoxy)pyridin-2-yl)-1H-1,2,4-triazol-3-yl)phenyl)-3-(3-(2-(1-methoxyethyl)-5-methylphenyl)-4-oxothiazolidin-2-ylidene)urea]",pest or weed control at 50 µg/cm2,[1]; [3],50 to 100%
same,pest or weed control at 50 µg/cm2,[2]; [4],50 to 100%
"Cc1ccc(C(C)C)c(N2C(=O)CS/C2=N\C(=O)Nc2ccc(-c3cn(-c4ccc(C(F)(F)F)cn4)cn3)cc2)c1 [Compound J519, (Z)-1-(3-(2-Isopropyl-5-methylphenyl)-4-oxothiazolidin-2-ylidene)-3-(4-(1-(5-(trifluoromethyl)pyridin-2-yl)-1H-imidazol-4-yl)phenyl)urea]",pest or weed control at 50 µg/cm2,[1]; read-out: BAW rating,50 to 100%
same,pest or weed control at 50 µg/cm2,[2]; read-out: CL rating,50 to 100%
